target: T1, GLP-1R (Homo sapiens, UniProt P43220); assay: EC20 GLP-1(9-36) PAM cAMP assay: dose response of compound in the presence of fixed concentration of GLP-1(9-36); type: cell-based; settings: GLP-1R CRE-bla CHO-K1 cells, compound dose response with fixed GLP-1(9-36), 30 min at 37° C.
T1 construct: host or cells: CRE-bla CHO-K1
Procedure: EC20 GLP-1(9-36) PAM cAMP assay: dose response of compound in the presence of fixed concentration of GLP-1 (9-36).
GLP-1R CRE-bla CHO-K1 cells cultured in growth medium (DMEM-High glucose, 10% dialyzed FBS, 0.1 mM NEAA, 25 mM Hepes, 100 U/mL penicillin/100 μg/mL streptomycin, 5 μg/mL Blasticidin, 600 μg/mL Hygromycin) were trypsinized and plated in suspension into 384 well white flat bottom plates at 5000 cells/well in 12 μL assay buffer (Hanks Balanced Salt solution, 10 mM hepes, 0.1% BSA, pH 7.4). A 5× compound dose response curve (12-point) was generated in assay buffer containing 1.5 mM IBMX, 4% DMSO. GLP-1(9-36) was diluted to 4.2 μM in assay buffer containing 1.5 mM IMBX and 4% DMSO. The 5× compound dose response was added (3 μL), followed by 0.5 μL of GLP-1(9-36) and cells were incubated for 30 min at 37° C. Direct detection of cAMP was carried out using DiscoveRx HitHunter cAMP kit according to manufacturer's instructions and luminescence was read using a SpectraMax M5 plate reader. Luminescence was converted to total cAMP using a cAMP standard curve and data was analyzed by non-linear regression to determine the EC50 and Emax.
GLP-1(7-36): […]-NH2 (SEQ ID NO: GLP-1(9-36): […]-NH2(SEQ ID NO: 3) GLP-1(7-36) was purchased from GenScript. GLP-1(9-36) was purchased from Biopeptide Co., Inc.

T1 sequence (P43220 24-463): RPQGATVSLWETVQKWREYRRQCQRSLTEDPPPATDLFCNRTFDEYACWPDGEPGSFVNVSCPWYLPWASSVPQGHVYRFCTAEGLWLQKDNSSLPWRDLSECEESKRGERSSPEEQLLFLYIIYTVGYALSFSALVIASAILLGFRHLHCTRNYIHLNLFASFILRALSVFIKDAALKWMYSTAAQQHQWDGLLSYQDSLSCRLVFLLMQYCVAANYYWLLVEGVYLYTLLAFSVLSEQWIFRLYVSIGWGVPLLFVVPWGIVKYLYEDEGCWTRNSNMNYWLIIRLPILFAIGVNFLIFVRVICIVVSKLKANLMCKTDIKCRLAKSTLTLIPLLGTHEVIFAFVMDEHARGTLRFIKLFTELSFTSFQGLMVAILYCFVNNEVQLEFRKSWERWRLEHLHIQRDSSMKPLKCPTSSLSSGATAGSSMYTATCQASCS
T1 sequence (P01275 100-127 partner limits assumed): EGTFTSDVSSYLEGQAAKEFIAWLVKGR

SMILES	EC50 [nM]
CCCCCCCOCCc1ccc(-c2nc(-c3ccc(C(NC(=O)c4ccc(C(C)(C)C)cc4)C(=O)O)cc3)no2)cc1 (centres unmarked) [Compound 71]	2500 to 5000
CCCCCCCOc1ccc(-c2cnc(-c3ccc(C[C@H](NC(=O)c4ccc(C(C)(C)C)s4)C(=O)N[C@H]4CCC[C@H]4C(=O)O)cc3)nc2)cc1 [Compound 382]	800 to 2500
CCCCCCCOc1ccc(-c2cnc(-c3ccc(C[C@H](NC(=O)c4ccc(C(C)(C)C)cc4)C(=O)NC[C@H]4CCNC4)cc3)nc2)cc1 [Compound 413]	5000 to 10000
CCCCCCCOc1ccc(-c2cnc(-c3ccc(C[C@H](NC(=O)c4ccc(C(C)(C)C)s4)C(=O)N[C@@H](CC(=O)NC4CC4)C(=O)O)cc3)nc2)cc1 [Compound 514]	< 800
CCCCCCCOc1ccc(-c2cnc(-c3ccc(C[C@H](NC(=O)c4ccc(C(C)(C)C)cc4)C(=O)NC(CCS(C)(=O)=O)C(=O)O)cc3)nc2)cc1 (some centres unmarked) [Compound 570]	< 800
CCCCCCCOc1ccc(-c2cnc(-c3ccc(C[C@H](NC(=O)c4ccc(C(C)(C)C)cc4)C(=O)N[C@@H](Cc4cn(C)cn4)C(=O)O)cc3)nc2)cc1 [Compound 576]	800 to 2500
CCCCCCCOc1ccc(-c2cnc(-c3ccc(C[C@H](NC(=O)c4ccc(C(C)(C)C)s4)C(=O)NC(C(=O)O)c4ccc(C)cc4)cc3)nc2)cc1 (some centres unmarked) [Compound 617]	< 800
CC(C)(C)c1ccc(C(=O)N[C@@H](Cc2ccc(-c3ncc(C4CCC(C(C)(C)C)CC4)cn3)cc2)C(=O)NCCC(=O)O)cc1 (some centres unmarked) [Compound 674]	5000 to 10000
CCCCCCCOC1CCN(c2cnc(-c3ccc(C[C@H](NC(=O)c4ccc(C(C)(C)C)cc4)C(=O)NCCC(=O)O)cc3)nc2)CC1 [Compound 693]	5000 to 10000
C/C=C/CCCOc1ccc(-c2cnc(-c3ccc(C[C@H](NC(=O)c4ccc(C(C)(C)C)cc4)C(=O)NCCC(=O)O)cc3)nc2)cc1 [Compound 714]	2500 to 5000
CCCC/C=C/COc1ccc(-c2cnc(-c3ccc(C[C@H](NC(=O)c4ccc(C(C)(C)C)cc4)C(=O)NCCC(=O)O)cc3)nc2)cc1 [Compound 715]	2500 to 5000
CCCCCCCOc1ccc(-c2cnc(-c3ccc(C[C@H](NC(=O)c4ccc(OC(C)C)cc4)C(=O)N[C@H](C)C(=O)O)cc3)nc2)cc1 [Compound 820]	2500 to 5000
CCCCCCCOc1ccc(-c2cnc(-c3ccc(C[C@H](NC(=O)c4ccc(OC(F)(F)F)cc4)C(=O)N[C@H](C)C(=O)O)cc3)nc2)cc1 [Compound 821]	800 to 2500
CCCCCCCOc1ccc(-c2cnc(-c3ccc(C[C@H](NC(=O)[C@H]4CC[C@H](C(C)(C)C)CC4)C(=O)N4CC[C@H](C(=O)O)C4)cc3)nc2)cc1 [Compound 858]	800 to 2500
CCCCCCCOc1ccc(-c2cnc(-c3ccc(C[C@H](NC(=O)c4oc(C(C)(C)C)cc4C)C(=O)N4CC[C@H](C(=O)O)C4)cc3)nc2)cc1 [Compound 866]	2500 to 5000
CC(C)(C)CCCOc1ccc(-c2cnc(-c3ccc(C[C@H](NC(=O)c4ccc(C(C)(C)C)s4)C(=O)NC(C(=O)O)C(O)c4ccccc4)cc3)nc2)cc1 (some centres unmarked) [Compound 944]	< 800
C[C@@H](NC(=O)[C@H](Cc1ccc(-c2ncc(-c3ccc(OCc4ccccc4)cc3F)cn2)cc1)NC(=O)c1ccc(C(C)(C)C)s1)C(=O)O [Compound 1024]	800 to 2500

Reference: US10259823B2, “GLP-1 receptor modulators” (Celgene International II SÀRL, priority 2013, dated 2019)
